This note sets out measurements from patent publication US20060160869A1, “Ubiquitin ligase inhibitors” (Rigel Pharmaceuticals, Inc., priority 2005, published 2006).

Bounds are passed on as bounds.

For orientation: IC50 means the concentration that inhibits the measured activity by half.

What all share (format): biochemical
One test addresses MDM2 (Homo sapiens, UniProt Q00987). Put plainly: Plate-based E3 ligase assay, MDM2 autoubiquitination (MDM2-FLAG). The conditions noted are these: Table 2; read-out: MDM2 IC50. On the procedure: (§1) E3 (His-APC11/APC2—“APC”) auto-ubiquitination was measured as described in U.S. patent application Ser. No. 09/826,312 (Publication No. US-2002-0042083-A1), which is incorporated herein in its entirety. Details of the protocol are described below. Activity in the presence of the compound was determined relative to a parallel control in which only DMSO was added. Values of the IC50 were typically determined using 6 or 8 different concentrations of the compound, although as few as 2 concentrations may be used to approximate the IC50 value.
(§2) Nickel-coated 96-well plates (Pierce 15242) were blocked for 1 hour with 100 μl of blocking buffer at room temperature. The plates were washed 4 times with 225 μl of 1×PBS and 80 μl of the reaction buffer were added that contained 100 ng/well of Flag-ubiquitin. To this, 10 μl of the test compound diluted in DMSO were added. After the test compound was added, 10 μl of E1 (human), E2 (Ubch5c), and APC in Protein Buffer was added to obtain a final concentration of 5 ng/well of E1, 20 ng/well: of E2 and 100 ng/well of APC. The plate were shaken for 10 minutes and incubated at room temperature for 1 hour. After incubation, the plates were washed 4 times with 225 μl of 1×PBS and 100 μl/well of Antibody Mix were added to each well. The plates were incubate at room temperature for another hour after which they were washed 4 times with 225 μl of 1×PBS and 100 μl/well of Lumino substrate were added to each well. The luminescence was measured by using a BMG luminescence microplate reader.
In similar manner, autoubiquitination of the E3 MDM2 was determined (MDM2-FLAG). Further instruction in such assays can be found in U.S. patent application Ser. No. 10/108,767 (Publication No. US-2003-0104474 A1), which is incorporated herein in its entirety.
hMDM2 Plate/Gel is Mouse double minute 2, human homolog. This protein belongs to the E3 RING finger ligase group.

For test [1], the target named is E3 (His-APC11/APC2, "APC") (Homo sapiens, UniProt Q9NYG5+Q9UJX6). Put plainly: Plate-based E3 ligase assay (APC FLAG), auto-ubiquitination. The conditions noted are these: Table 2; read-out: APC IC50. On the procedure:
as §1, §2
APC Plate/gel is Anaphase Promoting Complex. This protein also belongs to E3 RING finger ligase group.

For another test, the target named is E2 (Ubch5c) (Homo sapiens, UniProt P61077). Put plainly: E2 ligase assay, E2 auto-ubiquitination. The conditions noted are these: Table 2. The protocol: E2 (Ubch5c) auto-ubiquitination was measured as described in U.S. patent application Ser. No. 09/826,312 (Publication No. US-2002-0042083-A1), which is incorporated herein in its entirety. Details of the protocol are described below. Activity in the presence of the test compound was determined relative to a parallel control in which only DMSO was added. The IC50 values were typically determined using 6 or 8 different concentrations of compound, although as few as 2 concentrations may be used to approximate IC50 values.
Sequence of E2 (Ubch5c) (P61077 whole entry): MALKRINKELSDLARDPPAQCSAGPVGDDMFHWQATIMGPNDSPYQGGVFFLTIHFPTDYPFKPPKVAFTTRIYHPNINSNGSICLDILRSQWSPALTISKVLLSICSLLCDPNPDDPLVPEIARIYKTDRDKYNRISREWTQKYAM
Corning 96-well plates (Corning 3650) were blocked with 100 μl of Blocking Buffer for 1 hour at room temperature. The plates were washed for 4 times with 225 μl of 1×PBS and 80 μl of the reaction buffer were added that contained 100 ng/well of Flag-ubiquitin. To this, 10 μl of the test compound diluted in DMSO were added. After the test compound was added, 10 μl of E1 (human) and E2 (Ubch5c) in Protein Buffer were added to obtain a final concentration of 5 ng/well of E1 and 20 ng/well of E2. The plates were shaken for 10 minutes and incubated at room temperature for 1 hour. After incubation, the reaction was stopped by adding 25 μl of loading buffer (non-reducing) per well and the plates were heated at 95° C. for 5 minutes. An aliquot of each well was run on a 10% NugePage Gel and analyzed by Western Blot using the antibody mix and Lumino substrate described below. The luminescence was measured using a BMG luminescence microplate reader.

Sequence of MDM2 (Q00987 whole entry): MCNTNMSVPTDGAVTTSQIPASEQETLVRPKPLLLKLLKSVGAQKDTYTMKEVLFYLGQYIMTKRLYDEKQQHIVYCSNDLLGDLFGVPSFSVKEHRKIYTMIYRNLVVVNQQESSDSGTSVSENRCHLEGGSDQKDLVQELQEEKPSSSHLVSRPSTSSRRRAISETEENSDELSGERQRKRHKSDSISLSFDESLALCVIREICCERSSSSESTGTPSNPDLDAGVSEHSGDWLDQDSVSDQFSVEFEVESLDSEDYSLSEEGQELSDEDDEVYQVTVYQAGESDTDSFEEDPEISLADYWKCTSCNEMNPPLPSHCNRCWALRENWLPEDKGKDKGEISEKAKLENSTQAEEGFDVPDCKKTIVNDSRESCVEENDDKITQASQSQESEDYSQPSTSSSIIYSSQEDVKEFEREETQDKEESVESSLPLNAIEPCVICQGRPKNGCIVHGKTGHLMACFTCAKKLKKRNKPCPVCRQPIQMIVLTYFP
Sequence of E3 (His-APC11/APC2, "APC") (Q9NYG5 whole entry): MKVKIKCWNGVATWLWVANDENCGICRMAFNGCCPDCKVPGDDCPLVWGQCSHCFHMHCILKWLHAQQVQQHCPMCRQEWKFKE
Sequence of E3 (His-APC11/APC2, "APC") (Q9UJX6 whole entry): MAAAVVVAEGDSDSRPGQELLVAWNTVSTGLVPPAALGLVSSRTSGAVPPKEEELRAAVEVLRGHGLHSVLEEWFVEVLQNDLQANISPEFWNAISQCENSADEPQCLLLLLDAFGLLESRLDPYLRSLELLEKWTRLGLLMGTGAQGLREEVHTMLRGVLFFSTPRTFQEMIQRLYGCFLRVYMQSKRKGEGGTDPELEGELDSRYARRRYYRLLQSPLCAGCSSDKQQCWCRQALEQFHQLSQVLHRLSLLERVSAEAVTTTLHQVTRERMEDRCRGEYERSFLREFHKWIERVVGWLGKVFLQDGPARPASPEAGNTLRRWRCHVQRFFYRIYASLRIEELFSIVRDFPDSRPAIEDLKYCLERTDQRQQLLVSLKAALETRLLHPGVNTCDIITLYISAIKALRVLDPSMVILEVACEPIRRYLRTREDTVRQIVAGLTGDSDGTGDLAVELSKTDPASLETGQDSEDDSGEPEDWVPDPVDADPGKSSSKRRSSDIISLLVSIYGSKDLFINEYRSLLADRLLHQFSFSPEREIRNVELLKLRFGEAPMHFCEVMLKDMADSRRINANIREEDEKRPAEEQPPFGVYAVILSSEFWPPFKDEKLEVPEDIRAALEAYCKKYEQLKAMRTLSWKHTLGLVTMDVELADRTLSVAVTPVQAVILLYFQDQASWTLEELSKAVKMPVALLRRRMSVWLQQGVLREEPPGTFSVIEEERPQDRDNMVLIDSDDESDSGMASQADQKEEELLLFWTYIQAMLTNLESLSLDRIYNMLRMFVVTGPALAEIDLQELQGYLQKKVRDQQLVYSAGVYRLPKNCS

In the case of `COc1ccc(-c2csc(N(Cc3ccc(C(=O)N4CCNCC4)cc3)Cc3cccc(OC)c3OC)n2)cc1` [compound 291], the IC50 is at least 20 µM on MDM2 and 1 to 20 µM in test [1]. On the same counts, the results for `Cc1ccc(-c2csc(N(Cc3ccc(C(=O)N4CCNCC4)cc3)Cc3cccc(OC(F)(F)F)c3)n2)cc1` [compound 235] are 1 to 20 µM and 1 to 20 µM. Take `COc1ccc(OC)c(-c2csc(N(Cc3ccccc3)Cc3ccc(C(=O)NCC(=O)O)cc3)n2)c1` [compound 207]: on MDM2, the IC50 was in the range of 1 to 20 µM. Consider `COc1cccc(CN(Cc2ccc(C(=O)N3CCNCC3)cc2)c2nc(-c3ccccc3Cl)cs2)c1OC` [compound 345], for which the IC50 is at least 20 µM on MDM2, 1 to 20 µM in test [1] and at least 20 µM against E2 (Ubch5c). On to `O=C(c1ccc(CN(CCOc2ccccc2)c2nc(-c3ccc(Cl)cc3)cs2)cc1)N1CCNCC1` [compound 252], for which the IC50 at MDM2 was at least 20 µM; in test [1], 1 to 20 µM. In the case of `CN(Cc1ccc(C(=O)NC(Cc2ccccc2)C(=O)O)cc1)c1nc(-c2ccc(Cl)cc2)cs1` (stereo not drawn) [compound 15], the IC50 (at MDM2; in test [1]) was 1 to 20 µM each time. As to `O=C(O)CNC(=O)c1ccc(CN(Cc2ccccc2)c2nc(-c3ccccc3)cs2)cc1` [compound 216], at MDM2, the IC50 lay in the range of 1 to 20 µM. `COc1ccc(-c2csc(N(CCN(C(C)C)C(C)C)Cc3ccc(C(=O)N4CCNCC4)cc3)n2)cc1` [compound 227]: the IC50 (at MDM2; in test [1]) was at least 20 µM each time. Consider `CCN(Cc1ccc(C(=O)NCC(=O)O)cc1)c1nc(-c2ccc(Cl)cc2)cs1` [compound 146, N-(4-{[[4-(4-chlorophenyl)-1,3-thiazol-2-yl](ethyl)amino]methyl}benzoyl)glycine], for which, on MDM2, the IC50 is at least 20 µM.

On to `COc1ccc(OC)c(-c2csc(N(CCOc3ccccc3)Cc3ccc(C(=O)N4CCNCC4)cc3)n2)c1` [compound 268], for which the IC50 (at MDM2; in test [1]) was at least 20 µM in each case.

Consider `O=C(c1ccc(CN(Cc2cccc(OC(F)(F)F)c2)c2nc(-c3ccc(Cl)c(Cl)c3)cs2)cc1)N1CCNCC1` [compound 359], for which the IC50 (on MDM2; in test [1]) was 1 to 20 µM each time. `COc1cccc(CN(Cc2ccc(C(=O)N3CCNCC3)cc2)c2nc(-c3ccc(Cl)cc3)cs2)c1OC` [compound 245]: the IC50 on MDM2 was at least 20 µM; in test [1], 1 to 20 µM. As to `O=C(c1ccc(CN(Cc2cccc(OC(F)(F)F)c2)c2nc(-c3cccc([N+](=O)[O-])c3)cs2)cc1)N1CCNCC1` [compound 228], the IC50 is at least 20 µM at MDM2 and 1 to 20 µM in test [1]. Consider `O=C(c1ccc(CN(CCOc2ccccc2)c2nc(-c3ccc(F)cc3)cs2)cc1)N1CCNCC1` [compound 290], for which the IC50 (at MDM2; in test [1]) was at least 20 µM in each case. In the case of `CCN(Cc1ccc(C(=O)NCc2cccc(CN)c2)cc1)c1nc(-c2ccc(-c3ccccc3)cc2)cs1` [compound 65], the IC50 (on MDM2; in test [1]) was 1 to 20 µM in each case. For the compound `COc1ccccc1-c1csc(N(CCN(C(C)C)C(C)C)Cc2ccc(C(=O)N3CCNCC3)cc2)n1` [compound 292], the IC50 (on MDM2; in test [1]) was at least 20 µM throughout. For `COc1cccc(CN(Cc2ccc(C(=O)N3CCNCC3)cc2)c2nc(-c3cccc([N+](=O)[O-])c3)cs2)c1OC` [compound 224], the IC50 (on MDM2; in test [1]) was at least 20 µM each time. With `COc1cccc(CN(Cc2ccc(C(=O)N3CCNCC3)cc2)c2nc(-c3ccc(C)cc3)cs2)c1OC` [compound 283], the IC50 in test [1] was at least 20 µM. Take `O=C(c1ccc(CN(c2nc(-c3ccc(Cl)cc3)cs2)c2cccc3ccccc23)cc1)N1CCNCC1` [compound 289]: the IC50 (at MDM2; in test [1]) was at least 20 µM throughout. `COc1ccc(OC)c(-c2csc(N(Cc3ccc(C(=O)NCC(=O)O)cc3)c3ccccc3F)n2)c1` [compound 215]: the figures for the IC50 (at MDM2; in test [1]) were below 1 µM and 1 to 20 µM, respectively. On the same counts, the results for `COc1cccc(-c2csc(N(CCN(C(C)C)C(C)C)Cc3ccc(C(=O)N4CCNCC4)cc3)n2)c1` [compound 231] are at least 20 µM and at least 20 µM. As for `COc1ccccc1-c1csc(N(Cc2ccc(C(=O)N3CCNCC3)cc2)Cc2cccc(OC(F)(F)F)c2)n1` [compound 328], the IC50 on MDM2 is 1 to 20 µM; in test [1], 1 to 20 µM; against E2 (Ubch5c) it was at least 20 µM. Regarding `O=C(c1ccc(CN(CCOc2ccccc2)c2nc(-c3ccc(Br)cc3)cs2)cc1)N1CCNCC1` [compound 344], the IC50 (at MDM2; in test [1]) was 1 to 20 µM in each case. `COc1ccc(OC)c(-c2csc(N(Cc3ccc(C(=O)N4CCNCC4)cc3)Cc3cccc(OC(F)(F)F)c3)n2)c1` [compound 267]: the figures for the IC50 (at MDM2; in test [1]) were at least 20 µM and 1 to 20 µM, respectively. For the compound `O=C(c1ccc(CN(Cc2cccc(OC(F)(F)F)c2)c2nc(-c3ccc(Cl)cc3)cs2)cc1)N1CCNCC1` [compound 251], the IC50 (at MDM2; in test [1]) was at least 20 µM in each case. In the case of `COc1cccc(-c2csc(N(Cc3ccccc3)Cc3ccc(C(=O)NCC(=O)O)cc3)n2)c1` [compound 177], at MDM2, the IC50 is below 1 µM. In the case of `CCN(Cc1ccc(C(=O)NCC(=O)O)cc1)c1nc(-c2ccc(-c3ccccc3)cc2)cs1` [compound 193], the IC50 at MDM2 is 1 to 20 µM. With `COc1ccc(-c2csc(N(CCOc3ccccc3)Cc3ccc(C(=O)N4CCNCC4)cc3)n2)cc1` [compound 223], the IC50 (at MDM2; in test [1]) was at least 20 µM each time. Regarding `CC(C)N(CCN(Cc1ccc(C(=O)N2CCNCC2)cc1)c1nc(-c2ccccc2Cl)cs1)C(C)C` [compound 225], the IC50 (on MDM2; in test [1]) was at least 20 µM each time. Turning to `O=C(O)CNC(=O)c1ccc(CN(CCc2ccccc2)c2nc(-c3ccccc3)cs2)cc1` [compound 186], the IC50 on MDM2 lay within 1 to 20 µM. Consider `Cc1sc(N(C)Cc2ccc(C(=O)NCc3cccc(CN)c3)cc2)nc1-c1ccccc1` [compound 14], for which the IC50 (on MDM2; in test [1]) was at least 20 µM in each case. In the case of `COc1cccc(CN(Cc2ccc(C(=O)N3CCNCC3)cc2)c2nc(-c3ccc(Cl)c(Cl)c3)cs2)c1OC` [compound 297], the figures for the IC50 (at MDM2; in test [1]; on E2 (Ubch5c)) were 1 to 20 µM, 1 to 20 µM and at least 20 µM, respectively.

Consider `O=C(c1ccc(CN(Cc2cccc(OC(F)(F)F)c2)c2nc(-c3ccc(Br)cc3)cs2)cc1)N1CCNCC1` [compound 343], for which the IC50 (at MDM2; in test [1]) was 1 to 20 µM each time. `COc1ccc(-c2csc(N(Cc3ccc(C(=O)N4CCNCC4)cc3)Cc3cccc(OC(F)(F)F)c3)n2)cc1` [compound 222]: the IC50 (at MDM2; in test [1]) was at least 20 µM throughout. With `COc1cccc(CN(Cc2ccc(C(=O)N3CCNCC3)cc2)c2nc(-c3ccc(C)cc3)cs2)c1OC` [compound 230], the IC50 was at least 20 µM at MDM2 and 1 to 20 µM in test [1].
